According to PubChem BioAssay (NCI):
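Results reflect a 48-hour exposure of cells in 96-well plates to compound at five concentrations. The concentration for full growth arrest is given as TGI.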

Key:
Test in all cases: NCI anticancer screen, dose series, 48 h
786-0 renal = tested on: 786-0 renal
A498 renal = tested on: A498 renal
A549 NSCLC = tested on: A549 NSCLC
ACHN renal = tested on: ACHN renal
CAKI-1 renal = tested on: CAKI-1 renal
CCRF-CEM leukemia = tested on: CCRF-CEM leukemia
DLD-1 colon = tested on: DLD-1 colon
DMS 114 small cell lung = tested on: DMS 114 small cell lung
DMS 273 small cell lung = tested on: DMS 273 small cell lung
EKVX NSCLC = tested on: EKVX NSCLC
HCC-2998 colon = tested on: HCC-2998 colon
HCT-116 colon = tested on: HCT-116 colon
HCT-15 colon = tested on: HCT-15 colon
HL-60(TB) leukemia = tested on: HL-60(TB) leukemia
HOP-18 NSCLC = tested on: HOP-18 NSCLC
HOP-62 NSCLC = tested on: HOP-62 NSCLC
HOP-92 NSCLC = tested on: HOP-92 NSCLC
HT29 colon = tested on: HT29 colon
IGROV1 ovarian = tested on: IGROV1 ovarian
K-562 leukemia = tested on: K-562 leukemia
KM12 colon = tested on: KM12 colon
KM20L2 colon = tested on: KM20L2 colon
LOX IMVI melanoma = tested on: LOX IMVI melanoma
LXFL 529 NSCLC = tested on: LXFL 529 NSCLC
M14 melanoma = tested on: M14 melanoma
M19-MEL melanoma = tested on: M19-MEL melanoma
MALME-3M melanoma = tested on: MALME-3M melanoma
MOLT-4 leukemia = tested on: MOLT-4 leukemia
NCI-H226 lung = tested on: NCI-H226 lung
NCI-H23 lung = tested on: NCI-H23 lung
NCI-H460 lung = tested on: NCI-H460 lung
OVCAR-3 ovarian = tested on: OVCAR-3 ovarian
OVCAR-4 ovarian = tested on: OVCAR-4 ovarian
OVCAR-5 ovarian = tested on: OVCAR-5 ovarian
OVCAR-8 ovarian = tested on: OVCAR-8 ovarian
RPMI-8226 leukemia = tested on: RPMI-8226 leukemia
RXF 393 renal = tested on: RXF 393 renal
RXF-631 renal = tested on: RXF-631 renal
SF-268 CNS = tested on: SF-268 CNS
SF-295 CNS = tested on: SF-295 CNS
SF-539 CNS = tested on: SF-539 CNS
SK-MEL-2 melanoma = tested on: SK-MEL-2 melanoma
SK-MEL-28 melanoma = tested on: SK-MEL-28 melanoma
SK-MEL-5 melanoma = tested on: SK-MEL-5 melanoma
SN12C renal = tested on: SN12C renal
SNB-19 CNS = tested on: SNB-19 CNS
SNB-75 CNS = tested on: SNB-75 CNS
SNB-78 CNS = tested on: SNB-78 CNS
SR leukemia = tested on: SR leukemia
SW-620 colon = tested on: SW-620 colon
TK-10 renal = tested on: TK-10 renal
UACC-257 melanoma = tested on: UACC-257 melanoma
UACC-62 melanoma = tested on: UACC-62 melanoma
UO-31 renal = tested on: UO-31 renal
XF 498 CNS = tested on: XF 498 CNS

COC(=O)NC(=O)c1cn(CCCOC(=O)CCCCCCCCC(=O)OCCCn2cc(C(=O)NC(=O)OC)c(=O)[nH]c2=O)c(=O)[nH]c1=O
TGI (786-0 renal): > 100 µM
TGI (A498 renal): > 100 µM
TGI (A549 NSCLC): > 100 µM
TGI (ACHN renal): > 100 µM
TGI (CAKI-1 renal): > 100 µM
TGI (CCRF-CEM leukemia): > 100 µM
TGI (DLD-1 colon): > 100 µM
TGI (DMS 114 small cell lung): > 100 µM
TGI (DMS 273 small cell lung): > 100 µM
TGI (EKVX NSCLC): > 100 µM
TGI (HCC-2998 colon): > 100 µM
TGI (HCT-116 colon): > 100 µM
TGI (HCT-15 colon): > 100 µM
TGI (HL-60(TB) leukemia): > 100 µM
TGI (HOP-18 NSCLC): > 100 µM
TGI (HOP-62 NSCLC): 78.5 µM
TGI (HOP-92 NSCLC): 95.2 µM
TGI (HT29 colon): > 100 µM
TGI (IGROV1 ovarian): > 100 µM
TGI (K-562 leukemia): > 100 µM
TGI (KM12 colon): > 100 µM
TGI (KM20L2 colon): > 100 µM
TGI (LOX IMVI melanoma): > 100 µM
TGI (LXFL 529 NSCLC): > 100 µM
TGI (M14 melanoma): > 100 µM
TGI (M19-MEL melanoma): > 100 µM
TGI (MALME-3M melanoma): > 100 µM
TGI (MOLT-4 leukemia): > 100 µM
TGI (NCI-H226 lung): > 100 µM
TGI (NCI-H23 lung): > 100 µM
TGI (NCI-H460 lung): > 100 µM
TGI (OVCAR-3 ovarian): > 100 µM
TGI (OVCAR-4 ovarian): > 100 µM
TGI (OVCAR-5 ovarian): > 100 µM
TGI (OVCAR-8 ovarian): > 100 µM
TGI (RPMI-8226 leukemia): > 100 µM
TGI (RXF 393 renal): 75 µM
TGI (RXF-631 renal): > 100 µM
TGI (SF-268 CNS): > 100 µM
TGI (SF-295 CNS): > 100 µM
TGI (SF-539 CNS): > 100 µM
TGI (SK-MEL-2 melanoma): > 100 µM
TGI (SK-MEL-28 melanoma): > 100 µM
TGI (SK-MEL-5 melanoma): > 100 µM
TGI (SN12C renal): > 100 µM
TGI (SNB-19 CNS): 76.5 µM
TGI (SNB-75 CNS): 50.1 µM
TGI (SNB-78 CNS): > 100 µM
TGI (SR leukemia): > 100 µM
TGI (SW-620 colon): > 100 µM
TGI (TK-10 renal): > 100 µM
TGI (UACC-257 melanoma): > 100 µM
TGI (UACC-62 melanoma): > 100 µM
TGI (UO-31 renal): > 100 µM
TGI (XF 498 CNS): 58.8 µM
